Data reported in PMC7568253, “Evaluation of two xenobiotic reductases from Pseudomonas putida for their suitability for magnetic nanoparticle‐directed enzyme prodrug therapy as a novel approach to cancer treatment” (MicrobiologyOpen, 2020).

Target: T1, XenA-his (Pseudomonas putida, UniProt Q9R9V9)
T1 construct: about 39 kDa, described as monomeric flavoprotein
T1 sequence (Q9R9V9 1-363): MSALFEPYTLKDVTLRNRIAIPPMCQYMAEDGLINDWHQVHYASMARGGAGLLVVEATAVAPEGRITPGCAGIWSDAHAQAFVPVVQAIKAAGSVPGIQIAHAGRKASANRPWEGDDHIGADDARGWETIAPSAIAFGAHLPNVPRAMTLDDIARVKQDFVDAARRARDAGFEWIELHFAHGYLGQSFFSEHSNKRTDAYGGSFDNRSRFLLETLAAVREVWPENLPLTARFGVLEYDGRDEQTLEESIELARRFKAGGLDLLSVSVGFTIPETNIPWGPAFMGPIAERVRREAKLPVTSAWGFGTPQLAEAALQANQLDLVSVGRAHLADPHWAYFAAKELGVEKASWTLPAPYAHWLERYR
Assay: reduction of nitro groups tested with purified enzyme
Format: biochemical

With `O=[N+]([O-])OCC(CO[N+](=O)[O-])O[N+](=O)[O-]` [nitro-glycerin] the “reduction of nitro groups tested with purified enzyme” value was “it was able to reduce the NO2 groups present in the substrate”.
